From patent US9550811B2, “Peptide scaffold design” (BIONOR IMMUNO AS, priority 2010, dated 2017)

Assays:
Assay in all cases: REVEAL binding assay
Settings in all cases: score as percentage of the signal generated by the positive control peptide
HLA-A1 = test system: HLA-A1
Source text: (§5) The REVEAL™ binding assay determined the ability of each candidate peptide to bind to one or more MHC class I alleles and stabilizing the MHC-peptide complex. […] Detection is based on the presence or absence of the native conformation of the MHC-peptide complex. Each peptide is given a score relative to the positive control peptide, which is a known T cell epitope.

HLA-A24 = test system: HLA-A24
Source text: as §5

HLA-A29 = test system: HLA-A29
Source text: as §5

HLA-B8 = test system: HLA-B8
HLA-B14 = test system: HLA-B14
Source text: as §5

HLA-B15 = test system: HLA-B15
HLA-A11 = HLA-A11 (Homo sapiens, UniProt P04439, A114D/F33Y/S129P)
Experimental: (§1) Binding properties to HLA for the ninemers listed in table 6 were tested for the following HLA-classes:
(§2) HLA-A1, HLA-A2, HLA-A3, HLA-A11, HLA-A24, HLA-A29, HLA-B7, HLA-B8, HLA-B14, HLA-B15, HLA-B27, HLA-B35, HLA-B40.
(§3) The peptides were synthesized as a Prospector PEPscreen®: Custom Peptide Library. […] Quality control by MALDI-TOF Mass Spectrometry was carried out on 100% of samples.
(§4) The REVEAL™ binding assay determined the ability of each candidate peptide to bind to one or more MHC class I alleles and stabilizing the MHC-peptide complex. By comparing the binding to that of high and intermediate affinity T cell epitopes, the most likely immunogenic peptides in a protein sequence can be identified. Detection is based on the presence or absence of the native conformation of the MHC-peptide complex. Each peptide is given a score relative to the positive control peptide, which is a known T cell epitope.

HLA-A2 = HLA-A2 (Homo sapiens, UniProt P04439, D140Y/D185E/D98H/E176V/E277Q/G131W/G231S/I119V/I121R/I166T/I218V/N151K/N90K/P208A/P217A/Q86G/Q94H/R138H/R169H)
Experimental: as §1, §2, §3, §4

HLA-A3 = HLA-A3 (Homo sapiens, UniProt P04439)
Experimental: as §1, §2, §3, §4

HLA-B27 = HLA-B27 (Homo sapiens, UniProt P01889, D138H/D201E/E176V/E204Q/G107R/H137Y/K202T/N104T/N87E/Q56L/Q94K/R106L/R155S/R180L/S101D/S121N/S48T/Y140D/Y33H/Y91C)
Experimental: as §1, §2, §3, §4

HLA-B7 = HLA-B7 (Homo sapiens, UniProt P01889)
Experimental: as §1, §2, §3, §4

HLA-B35 = test system: HLA-B35
Source text: as §5

HLA-B40 = test system: HLA-B40
Experimental: as §1, §2
The peptides were synthesized as a Prospector PEPscreen®: Custom Peptide Library. Peptides 8-15 amino acids in length were synthesized in 0.5-2 mg quantities with high average purity. Quality control by MALDI-TOF Mass Spectrometry was carried out on 100% of samples.
as §4, with “epitope. The score of the test peptide is reported quantitatively as a percentage of the signal generated by the positive control peptide, and the peptide is indicated as having a putative pass or fail result. Assay performance is confirmed by including an intermediate control peptide that is known to bind with weaker affinity to the allele under investigation.” for “epitope.”

Chain of HLA-A3 (P04439 25-299): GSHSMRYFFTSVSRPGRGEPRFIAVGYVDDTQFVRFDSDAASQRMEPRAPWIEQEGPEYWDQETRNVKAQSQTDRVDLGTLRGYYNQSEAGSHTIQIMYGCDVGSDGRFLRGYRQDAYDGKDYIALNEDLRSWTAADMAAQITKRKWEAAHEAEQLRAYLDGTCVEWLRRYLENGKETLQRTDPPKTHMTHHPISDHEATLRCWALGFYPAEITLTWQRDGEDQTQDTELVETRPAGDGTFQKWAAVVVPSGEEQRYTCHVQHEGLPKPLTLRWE
Chain of HLA-A3 (P61769 21-119, further chain): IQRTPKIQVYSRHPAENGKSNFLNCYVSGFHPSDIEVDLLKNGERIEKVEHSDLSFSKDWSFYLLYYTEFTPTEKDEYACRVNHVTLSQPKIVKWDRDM
Chain of HLA-B7 (P61769 21-119): as the sequence (P61769 21-119, further chain) above
Chain of HLA-B7 (P01889 25-299): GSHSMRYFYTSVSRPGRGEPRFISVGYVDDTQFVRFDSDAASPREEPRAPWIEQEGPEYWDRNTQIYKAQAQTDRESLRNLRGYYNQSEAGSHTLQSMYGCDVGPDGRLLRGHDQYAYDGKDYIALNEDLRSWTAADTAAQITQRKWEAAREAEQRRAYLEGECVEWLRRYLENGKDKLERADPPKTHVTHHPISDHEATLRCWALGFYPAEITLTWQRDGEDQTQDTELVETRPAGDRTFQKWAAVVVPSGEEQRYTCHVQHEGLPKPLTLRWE

Row | Sequence | REVEAL binding score, HLA-type A1 (HLA-A1) [%] | REVEAL binding score, HLA-type A24 (HLA-A24) [%] | REVEAL binding score, HLA-type A29 (HLA-A29) [%] | REVEAL binding score, HLA-type B8 (HLA-B8) [%] | REVEAL binding score, HLA-type B14 (HLA-B14) [%] | REVEAL binding score, HLA-type B15 (HLA-B15) [%] | REVEAL binding score, HLA-type A11 (HLA-A11) [%] | REVEAL binding score, HLA-type A2 (HLA-A2) [%] | REVEAL binding score, HLA-type A3 (HLA-A3) [%] | REVEAL binding score, HLA-type B27 (HLA-B27) [%] | REVEAL binding score, HLA-type B7 (HLA-B7) [%] | REVEAL binding score, HLA-type B35 (HLA-B35) [%] | REVEAL binding score, HLA-type B40 (HLA-B40) [%]
1 | GQIIGGNYL | 20.65 | 0.47 | 14.17 | 11.90 | 0.22 | 173.66 | 2.77 | 12.96 | 3.01 | 0.64 | 2.39 | 2.60 | 31.55
2 | GQIVGGVYL | 15.07 | 0.50 | 13.73 | 14.53 | 0.37 | 182.45 | 4.46 | 55.85 | 4.80 | 1.01 | 6.56 | 3.24 | 24.20
3 | GRVIETLTS | 14.42 | 0.88 | 15.59 | 12.91 | 0.20 | 8.31 | 27.62 | 5.26 | 12.46 | 1.05 | 1.25 | 3.56 | 38.91
4 | GYIPLVGAP | 15.62 | 0.80 | 29.74 | 15.94 | 0.47 | 11.02 | 3.84 | 7.28 | 3.46 | 1.76 | 1.37 | 10.35 | 72.32
5 | GYLPAVGAP | 12.04 | 0.35 | 26.03 | 17.38 | 0.11 | 10.50 | 4.25 | 5.87 | 2.90 | 0.73 | 3.10 | 1.84 | 27.82
6 | IGGNYLIPR | 17.90 | 0.89 | 14.85 | 14.23 | 0.32 | 15.02 | 3.57 | 7.04 | 2.88 | 0.82 | 20.49 | 2.54 | 25.44
7 | IIGGNYLIP | 21.14 | 10.95 | 13.88 | 12.18 | 1.17 | 19.93 | 2.81 | 8.27 | 3.88 | 0.97 | 15.47 | 5.35 | 65.43
8 | IPLVGAPLG | 13.28 | 0.60 | 26.79 | 17.87 | 0.03 | 10.01 | 2.05 | 4.32 | 2.59 | 0.35 | 2.34 | 30.74 | 41.10
9 | IRNLGRVIE | 14.22 | 0.61 | 11.06 | 9.10 | 30.77 | 4.06 | 5.31 | 8.77 | 3.89 | 1.84 | 1.43 | 1.98 | 21.40
10 | IRVIAHGLR | 15.82 | 0.50 | 23.19 | 13.34 | 0.10 | 8.99 | 2.50 | 4.83 | 3.58 | 9.37 | 3.50 | 0.66 | 26.45
